# According to PMC3458928, “Co-Factor Binding Confers Substrate Specificity to Xylose Reductase from Debaryomyces hansenii” (PLoS ONE, 2012):
# Several values for one entry are separate records, joined by “and”; a condition that tells them apart may be missing. Equal values may be shown once. Read-outs that look alike come from different tables or passages of the source.
# Assays:
# [1] = target: DhXR Y47A mutant (Debaryomyces hansenii, UniProt Q6BLI9, Y47A); assay: biochemical; format: binding; settings: for reduction in affinity versus wild type: first site
# Method: (§1) Titrations of DhXR with ligands were examined by monitoring the intrinsic tryptophan fluorescence of DhXR using a Varian spectrofluorometer. Experiments were performed in indicated buffers as mentioned in the text. The excitation wavelength and emission wavelengths for monitoring DhXR-ligand interaction were 292 nm and 345 nm respectively. Slit widths were set to 5 nm for all experiments and PMT voltage was adjusted to get maximum signal for a given protein concentration. All experiments were done at 25.0±1°C. Initial readings of both the protein, Fprotein,0 and buffer, Fbuff,0 were taken, with F0 = Fprotein,0–Fbuff,0 defined as the initial fluorescence of the sample. The sample cuvette was then titrated with aliquots of ligands and mixed, and equilibrated for 3–4 minutes before measurement. Data points from five such measurements were averaged to obtain Fave,i. The relative fluorescence quenching upon sugar binding is defined as Qobs,i = (F0–Fave,i)/F0. All measurements were corrected for dilution, and inner filter effects.
# (§2) Binding of ligands to DhXR was analyzed using two site binding model. [drawing 1] (1) where Q1 and Q2 are the fluorescence quenching corresponding to one and two ligands bound, respectively; L is concentration of free ligand in solution; K1,obs and K2,obs are association constants for the binding of the first and the second ligand molecule. Errors were calculated from fitting analysis of two independent experiments.
# (§3) We tested the activity of all mutants and activities were normalized to the activity of wild type DhXR with respect to its D-xylose reducing activity.
# [2] = target: T1, holo-DhXR (Debaryomyces hansenii, UniProt Q6BLI9); assay: Steady state kinetics of carbonyl substrate reduction by holo-DhXR (A340, NADPH); format: biochemical; settings: for Vmax / k cat: 25 °C, pH 7.0, 0.15 mM NADPH, 0.18 µM enzyme; for Km/Kd ratio (net affinity loss): Km of holoenzyme vs Kd of apoenzyme
# Method: (§4) The xylose reductase activities of recombinant DhXR was determined spectrophotometrically by monitoring the change in A340 upon reduction of NADPH to NADP. The standard assay mixture contained 50 mM KPO4, pH 7.0, 100 mM sugar substrate, 0.3 mM NADPH, 0.18 µM of enzyme. Single point activity studies were performed at 40°C and all reactions were started by the addition of enzyme to a final volume of 0.8 ml (in standard assay condition). […] Errors for the activity assays were calculated from triplicate experiments. The kinetic parameters were determined using a range of substrate concentrations. Here, the reaction was performed at 25°C and assay mixture contained 50 mM KPO4, pH 7.0, 0.15 mM NADPH, 0.18 µM of enzyme and varying substrate concentrations. Steady state kinetics data were fit to Michaelis-Menten model, v = Vmax * [S]/([S]+Km), where Vmax, maximal velocity; Km, Michaelis-Menten constant; S, substrate concentration, and v, initial velocity.
# To understand the specificity determining component in catalysis, we studied the steady state kinetics of holo-DhXR towards different carbonyl substrates. […] Therefore, all kinetic data analyzed fitting to Michaelis-Menten model by Non-Linear Least Squares method. (Fig. 4A). Steady state kinetic parameters are also determined for other sugars (table 3, Fig. 4B). […] We compared the Km/Kd ratio as an indicator of net affinity loss for a given substrate (Fig. S5).
# In order to further verify that holoenzyme discriminates between substrate and non-substrate sugars, we challenged the catalysis of D-xylose by adding non-substrate sugars during kinetic experiments. […] We studied the kinetics of D-xylose reduction by holo-DhXR in the presence of fixed concentration (∼40 mM) of three sugars (Fig. 4C).
# [3] = target: T1, holo-DhXR; assay: Single point specific activity of holo-DhXR towards different sugars; format: biochemical; settings: saturated sugar concentration (100 mM), 40 °C
# Method: as §4
# [4] = target: T1, holo-DhXR; assay: Specific activity of DhXR with 100 mM D-xylose in presence of competing sugars; format: biochemical
# Method: as §4
# (§5) Assays were performed at 100 mM D-xylose and concentrations of competing sugars were varied (25 mM to 400 mM). […] Both DhXR and NADPH (20.0 µM) are pre-incubated and fluorescence signal was monitored until no further change. […] It should be noted that D-xylose is the substrate and is very likely to be reduced soon after binding.
# [5] = target: apo-DhXR (wild type xylose reductase) (Debaryomyces hansenii, UniProt Q6BLI9); assay: Tryptophan fluorescence quenching titration, ligand binding to apo-DhXR wild type; settings: for ratio of first to second intrinsic binding constant: affinity of first vs second ligand molecule
# Method: as §1, §2
# We examined the binding of D-xylose, xylitol, and NADPH to apo-DhXR. Quenching of tryptophan fluorescence upon ligand binding was used as the signal for monitoring the extent of binding. Apo-DhXR was excited at 292 nm and emission of tryptophan fluorescence was scanned between 300–375 nm (Fig. S2). […] Intrinsic site-specific binding constants are estimated from the macroscopic binding constants obtained from fitting by removing the statistical factors as in eq (2). [drawing 2] (2)
# [6] = target: DhXR H109A mutant (Debaryomyces hansenii, UniProt Q6BLI9, H109A); assay: biochemical; format: binding
# Method: as §1, §2, §3
# [7] = target: DhXR K76A mutant (Debaryomyces hansenii, UniProt Q6BLI9, K76A); assay: biochemical; format: binding
# Method: as §1, §2, §3
# [8] = target: T2, DhXR D10A mutant (Debaryomyces hansenii, UniProt Q6BLI9, D10A); assay: Fluorescence quenching titration, ligand binding to DhXR D10A mutant
# T2 sequence (Q6BLI9 1-317 D10A): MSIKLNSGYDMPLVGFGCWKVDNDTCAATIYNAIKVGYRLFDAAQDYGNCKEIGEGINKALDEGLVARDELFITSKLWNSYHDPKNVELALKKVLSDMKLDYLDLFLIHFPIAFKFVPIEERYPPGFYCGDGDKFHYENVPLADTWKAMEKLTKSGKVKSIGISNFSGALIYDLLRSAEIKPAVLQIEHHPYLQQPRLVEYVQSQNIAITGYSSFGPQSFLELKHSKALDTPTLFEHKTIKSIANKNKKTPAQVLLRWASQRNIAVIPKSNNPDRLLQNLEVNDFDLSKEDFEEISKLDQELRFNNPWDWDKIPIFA
# Method: as §1, §2, §3
# [9] = target: T3, DhXR D42A mutant (Debaryomyces hansenii, UniProt Q6BLI9, D42A); assay: Fluorescence quenching titration, ligand binding to DhXR D42A mutant
# T3 sequence (Q6BLI9 1-317 D42A): T2 sequence (Q6BLI9 1-317 D10A)
# Method: as §1, §2, §3
# [10] = target: T4, DhXR N305A mutant (Debaryomyces hansenii, UniProt Q6BLI9, N305A); assay: Fluorescence quenching titration, ligand binding to DhXR N305A mutant
# T4 sequence (Q6BLI9 1-317 N305A): T2 sequence (Q6BLI9 1-317 D10A)
# Method: as §1, §2, §3
# [11] = test system: DhXR-NADPH complex; assay: Fluorescence titration of pre-formed DhXR-NADPH binary complex; format: binding, Debaryomyces hansenii; settings: DhXR pre-incubated with 20.0 µM NADPH
# Method: as §1, §5
# [12] = 25 mM sugar added in 100 mM D-xylose reaction
# [13] = 100 mM sugar added in 100 mM D-xylose reaction
# [14] = 400 mM sugar added in 100 mM D-xylose reaction
# [15] = Kd1,int, wild type apo-DhXR, first site, 25 °C
# [16] = read-out: Kd2,int, wild type apo-DhXR, second site, 25 °C
Compound,reduction in affinity versus wild type ([1]; Y47A),Vmax [2] [nmol/min],k cat [2] [s⁻¹],reduction of holoenzyme activity compared with D-xylose [3],"Specific activity [4, 12] [nmol/min]","Specific activity [4, 13] [nmol/min]","Specific activity [4, 14] [nmol/min]","Kd [5, 15]","Kd [5, 16]",Kd [6] [mM],Kd [7] [mM],Kd [1] [mM],Km/Kd ratio (net affinity loss) [2],ratio of first to second intrinsic binding constant [5],"K1,int (intrinsic association constant, first ligand) ([5]; wild type apo-DhXR)",Kd [8] [µM],Kd [9] [mM],Kd [10] [µM],binding to DhXR-NADPH complex (fluorescence signal) [11],other results
O=C[C@H](O)[C@@H](O)[C@@H](O)[C@H](O)CO [D-galactose],8–10 fold,136.5 ± 9.4,15.2,50%,76.8 ± 3.8,84.4 ± 3.3,99.3 ± 4.3,–,–,–,–,–,–,–,–,–,–,–,–,–
O=C[C@H](O)[C@H](O)[C@H](O)CO [D-ribose],~2 fold,93.1 ± 3.2,10.3,–,77.5 ± 3.6,84.7 ± 3.8,78.5 ± 3.1,~10.5 mM and 10.5 mM,83 ± 7 mM,13 ± 3,10 ± 2,12 ± 1,12–15 fold,–,–,–,–,–,–,"fold less affinity than D-xylose ([5]; first site, apo-DhXR): ~2 fold; reduction in affinity versus wild type ([7]; K76A): 2 fold"
O=C[C@H](O)[C@@H](O)[C@H](O)CO [D-xylose],–,–,–,–,–,–,–,~5.3 mM and 5.3 mM,17 mM and 17.2 mM,13.3 ± 2,12.8 ± 2,12.9 ± 2,12–15 fold,~4,1.9±0.6×10^2 M^−1,6700 ± 1000,5.1 ± 0.6,6400 ± 2000,showed further quenching of fluorescence,"Hill coefficient, nH ([5]; from logarithmic (Hill) plot): ~0.68; K2,int (intrinsic association constant, second ligand) ([5]; wild type apo-DhXR): 5.8±0.1×10^1 M^−1; Kd ([9]; read-out: Kd2,int, D42A, second site): 47.6 ± 18 mM; Specific activity ([4]; 100 mM D-xylose alone, 0 mM competing sugar): 72.5 ± 2.4 nmol/min"
C[C@H](O)[C@H](O)[C@@H](O)[C@@H](O)C=O [L-rhamnose],–,–,–,more than 95%,76.2 ± 6.4,73.4 ± 2.8,68.7 ± 3.4,–,–,–,–,–,–,–,–,–,–,–,cannot bind,"Kd ([5]; wild type apo-DhXR, first site, 25 °C, read-out: Kd1,int): 14 ± 3 mM; Kd ([5]; wild type apo-DhXR, second site, 25 °C, read-out: Kd2,int): 33 ± 13 mM; catalysis in steady state kinetic curves (in words) ([2]; comparison of kinetic curves of different sugars): very low activity; Km/Kd ratio (net affinity loss), predicted minimum ([2]; could not be estimated due to insignificant catalysis, minimum predicted): > 500 fold"
"NC(=O)C1=CN([C@@H]2O[C@H](COP(=O)(O)OP(=O)(O)OC[C@H]3O[C@@H](n4cnc5c(N)ncnc54)[C@H](OP(=O)(O)O)[C@@H]3O)[C@@H](O)[C@H]2O)C=CC1 [NADPH, Nicotinamide adenine dinucleotide phosphate]",–,–,–,–,–,–,–,–,–,0.0055 ± 0.002,0.01 ± 0.0006,0.01 ± 0.0007,–,~4,8.9±0.4×10^5 M^−1,3.3 ± 0.2,0.01 ± 0.0005,8.3 ± 2,–,"Kd ([5]; Kd1,int, wild type apo-DhXR, first site, NADPH): 0.0011 ± 0.0002 mM; affinity of cofactor relative to substrate affinity ([5]; apoenzyme): ~4700 times; Kd ([5]; read-out: Kd2,int, wild type apo-DhXR, second site, NADPH): 0.0039 ± 0.0002 mM; Kd ([8]; read-out: Kd2,int, D10A, second site, NADPH): 10 ± 3 µM; Kd ([6]; read-out: Kd2,int, H109A, second site, NADPH): 0.083 ± 0.035 mM; Kd ([1]; read-out: Kd2,int, Y47A, second site, NADPH): 0.192 ± 0.026 mM; Kd ([10]; read-out: Kd2,int, N305A, second site, NADPH): 90 ± 25 µM"
